Experimental data published in patent US9695155B2, “Herbicidal substituted pyrimidinyloxy benzene compounds” (E. I. DU PONT DE NEMOURS AND COMPANY, priority 2013, dated 2017).

Legend:
sedge, umbrella = test: Test G flood (paddy water application); type: in vivo, Cyperus difformis; details: after 21 days, scale 0 to 100, 0 no effect, 100 complete control
Excerpt: (§1) Three plastic pots (ca. 16-cm diameter) per rate were partially filled with sterilized Tama silt loam soil comprising a 35:50:15 ratio of sand, silt and clay and 2.6% organic matter. Separate plantings for each of the three pots were as follows. Seeds from the U.S. of monochoria (Monochoria vaginalis), sedge, umbrella (small-flower umbrella sedge, Cyperus difformis), hardstem bulrush (Scirpus juncoides), and redstem (purple redstem, Ammannia coccinea), were planted into one 16-cm pot for each rate. Seeds from the U.S. of rice flatsedge (Cyperus iria), bearded sprangletop (Leptochloa fascicularis), one stand of 9 or 10 water seeded rice seedlings (Oryza sativa cv. ‘Japonica—M202’), and two stands of 3 or 4 transplanted rice seedlings (Oryza sativa cv. ‘Japonica—M202’) were planted into one 16-cm pot for each rate. Seeds from the U.S. of barnyardgrass (Echinochloa crus-galli), and late watergrass (Echinochloa oryzicola) were planted into one 16-cm pot for each rate. Plantings were sequential so that crop and weed species were at the 2.0 to 2.5-leaf stage at time of treatment.
(§2) Potted plants were grown in a greenhouse with day/night temperature settings of 30/27° C., and supplemental balanced lighting was provided to maintain a 16-hour photoperiod. Test pots were maintained in the greenhouse until test completion.
(§3) At time of treatment, test pots were flooded to 3 cm above the soil surface, treated by application of test compounds directly to the paddy water, and then maintained at that water depth for the duration of the test. Effects of treatments on rice and weeds were visually evaluated by comparison to untreated controls after 21 days. Plant response ratings, summarized in Table G, are based on a scale of 0 to 100 where 0 is no effect and 100 is complete control. A dash (-) response means no test result.

monochoria = test: Test G flood (paddy water application); type: in vivo, Monochoria vaginalis; details: after 21 days, scale 0 to 100, 0 no effect, 100 complete control
Excerpt: as §1, §2, §3

Russian thistle = test: Test C preemergence; type: in vivo, Salsola kali; details: for Russian Thistle plant response rating: preemergence, scale 0 (no effect) to 100 (complete control); for Plant response rating, Russian Thistle: Preemergence, 31 g ai/ha, scale 0 to 100, 0 no effect, 100 complete control
Excerpt: Seeds of plant species selected from blackgrass (Alopecurus myosuroides), Italian ryegrass (Lolium multiflorum), wheat, winter (winter wheat, Triticum aestivum), galium (catchweed bedstraw, Galium aparine), corn (Zea mays), large (Lg) crabgrass (Digitaria sanguinalis), giant foxtail (Setaria faberii), johnsongrass (Sorghum halepense), lambsquarters (Chenopodium album), morningglory (Ipomoea coccinea), yellow nutsedge (Cyperus esculentus), pigweed (Amaranthus retroflexus), ragweed (common ragweed, Ambrosia elatior), soybean (Glycine max), barnyardgrass (Echinochloa crus-galli), oilseed rape (Brassica napus), waterhemp (common waterhemp, Amaranthus rudis), kochia (Kochia scoparia), wild oat (Avena fatua), surinam grass (Brachiaria decumbens), foxtail, green (green foxtail, Setaria viridis), goosegrass (Eleusine indica), bromegrass, downy (downy bromegrass, Bromus tectorum), nightshade (eastern black nightshade, Solanum ptycanthum), cocklebur (common cocklebur, Xanthium strumarium), cupgrass, woolly (woolly cupgrass, Eriochloa villosa), bermudagrass (Cynodon dactylon), sunflower, (common oilseed sunflower, Helianthus annuus), Russian thistle (Salsola kali), and velvetleaf (Abutilon theophrasti) were planted into a blend of loam soil and sand and treated preemergence with test chemicals formulated in a non-phytotoxic solvent mixture which included a surfactant.
At the same time, plants selected from these crop and weed species and also barley, winter (winter barley, Hordeum vulgare), windgrass (Apera spica-venti), chickweed (common chickweed, Stellaria media), deadnettle (henbit deadnettle, Lamium amplexicaule), and canarygrass (littleseed canarygrass, Phalaris minor) were planted in pots containing Redi-Earth® planting medium (Scotts Company, 14111 Scottslawn Road, Marysville, Ohio 43041) comprising spaghnum peat moss, vermiculite, wetting agent and starter nutrients and treated with postemergence applications of test chemicals formulated in the same manner. Plants ranged in height from 2 to 18 cm (1- to 4-leaf stage) for postemergence treatments. Treated plants and controls were maintained in a greenhouse for 13 to 15 days, after which time all species were compared to controls and visually evaluated. Plant response ratings, summarized in Table C, are based on a scale of 0 to 100 where 0 is no effect and 100 is complete control. A dash (-) response means no test result.

bearded sprangletop = test: Test G flood (paddy water application); type: in vivo, Leptochloa fascicularis; details: after 21 days, scale 0 to 100, 0 no effect, 100 complete control
Excerpt: as §1, §2, §3

barnyardgrass = test: Test G flood (paddy water application); type: in vivo, Echinochloa crus-galli; details: after 21 days, scale 0 to 100, 0 no effect, 100 complete control
Excerpt: as §1, §2, §3

[1] = tested on: transplanted rice seedlings; test: Test G flood (paddy water application); type: in vivo, Oryza sativa cv. ‘Japonica—M202’; details: after 21 days, scale 0 to 100, 0 no effect, 100 complete control
Excerpt: as §1, §2, §3

[2] = tested on: water seeded rice seedlings; test: Test G flood (paddy water application); type: in vivo, Oryza sativa cv. ‘Japonica—M202’; details: after 21 days, scale 0 to 100, 0 no effect, 100 complete control
Excerpt: as §1, §2, §3

SMILES | Plant response rating, Sedge, Umbrella (sedge, umbrella; 32 g ai/ha) | Plant response rating, Sedge, Umbrella (sedge, umbrella; 64 g ai/ha) | Plant response rating, Sedge, Umbrella (sedge, umbrella; 125 g ai/ha) | Plant response rating, Sedge, Umbrella (sedge, umbrella; 250 g ai/ha) | Plant response rating, Monochoria (monochoria; 32 g ai/ha) | Plant response rating, Monochoria (monochoria; 64 g ai/ha) | Plant response rating, Monochoria (monochoria; 125 g ai/ha) | Plant response rating, Monochoria (monochoria; 250 g ai/ha) | Russian Thistle plant response rating (Russian thistle; 62 g ai/ha) | Russian Thistle plant response rating (Russian thistle; 125 g ai/ha) | Russian Thistle plant response rating (Russian thistle; 250 g ai/ha) | Plant response rating, Russian Thistle (Russian thistle) | Plant response rating, Sprangletop, Brdd. (bearded sprangletop; 32 g ai/ha) | Plant response rating, Sprangletop, Brdd. (bearded sprangletop; 64 g ai/ha) | Plant response rating, Sprangletop, Brdd. (bearded sprangletop; 125 g ai/ha) | Plant response rating, Sprangletop, Brdd. (bearded sprangletop; 250 g ai/ha) | Plant response rating, Barnyardgrass (barnyardgrass; 32 g ai/ha) | Plant response rating, Barnyardgrass (barnyardgrass; 64 g ai/ha) | Plant response rating, Barnyardgrass (barnyardgrass; 125 g ai/ha) | Plant response rating, Barnyardgrass (barnyardgrass; 250 g ai/ha) | also measured
FC(F)(F)c1cnn(-c2ccccc2Oc2ncc(Cl)cn2)c1 [Compound 16] | 0 | 60 | 100 | 100 | 95 | 95 | 100 | 100 | 80 | 90 | 90 | 0 | 65 | 100 | 100 | 100 | 0 | 40 | 100 | 100 | Plant response rating, Rice, Transplanted ([1]; 32 g ai/ha): 0; Plant response rating, Rice, Water Seeded ([2]; 32 g ai/ha): 50; Plant response rating, Rice, Water Seeded ([2]; 64 g ai/ha): 90; Plant response rating, Rice, Water Seeded ([2]; 125 g ai/ha): 100; Plant response rating, Rice, Water Seeded ([2]; 250 g ai/ha): 100
FC(F)(F)c1cnn(-c2ccccc2Oc2ncc(Br)cn2)c1 [Compound 18, 5-bromo-2-[2-[4-(trifluoromethyl)-1H-pyrazol-1-yl]phenoxy]pyrimidine] | 0 | 20 | 35 | 100 | 95 | 95 | 100 | 100 | 0 | 95 | 95 | 0 | 70 | 80 | 90 | 100 | 0 | 20 | 35 | 100 | Plant response rating, Rice, Transplanted ([1]; 125 g ai/ha): 15; Plant response rating, Rice, Transplanted ([1]; 250 g ai/ha): 20; Plant response rating, Rice, Water Seeded ([2]; 64 g ai/ha): 60; Plant response rating, Rice, Water Seeded ([2]; 125 g ai/ha): 90; Plant response rating, Rice, Water Seeded ([2]; 250 g ai/ha): 100
